Our source for the EC50 values is PubChem BioAssay AID743420 (The Scripps Research Institute Molecular Screening Center, 2014).

Activity calls are given as the source filed them. The rule behind the calls is not given here.

For the test, the target named is Sphingosine 1-phosphate receptor 5 (Homo sapiens) (UniProt Q9H228). As to the kind of experiment: S1P5 receptor agonist activity, late-stage follow-up, counter-screen for S1PR3 antagonist project, cell-based, FRET, dose response (AID 743420). To be noted: S1P5 cell-based FRET assay, agonist mode. In general terms: A counterscreen serves to expose hits that act by an unwanted route or on another target.
Chain of Sphingosine 1-phosphate receptor 5 (Homo sapiens) (Q9H228 whole entry, looked up): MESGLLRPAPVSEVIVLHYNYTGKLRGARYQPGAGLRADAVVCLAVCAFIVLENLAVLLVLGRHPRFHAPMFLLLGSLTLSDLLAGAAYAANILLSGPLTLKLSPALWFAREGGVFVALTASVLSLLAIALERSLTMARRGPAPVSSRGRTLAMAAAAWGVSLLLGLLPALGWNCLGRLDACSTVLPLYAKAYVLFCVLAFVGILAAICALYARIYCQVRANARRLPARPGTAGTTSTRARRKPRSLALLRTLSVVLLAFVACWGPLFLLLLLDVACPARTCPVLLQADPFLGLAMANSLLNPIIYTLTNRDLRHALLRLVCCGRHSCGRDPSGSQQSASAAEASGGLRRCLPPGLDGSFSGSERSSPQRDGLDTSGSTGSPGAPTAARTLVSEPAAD
Consider `O=C(NC(c1ccc(Cl)c(Cl)c1)c1nc(-c2ccccc2)no1)c1ccc(Cl)cc1` (configuration not stated), for which the EC50 is > 28.2 µM (inactive).

Consider `O=C(NC(c1ccccc1)c1nc(-c2ccccc2)no1)c1cccc(Cl)n1` (configuration not stated), for which the EC50 is > 28.2 µM (inactive).

In the case of `O=C(NC(c1cccc(Cl)c1)c1nc(-c2ccccc2)no1)c1cc(Cl)cc(Cl)c1` (configuration not stated), the EC50 is > 28.2 µM (inactive).

For `Cc1ccc(C(NC(=O)c2cccc(Cl)c2)c2nc(-c3ccccc3)no2)cc1` (configuration not stated), the EC50 was > 28.2 µM (inactive).

`O=C(NC(c1ccccc1)c1nc(-c2ccccc2)no1)c1cccc(Br)c1` (configuration not stated): the EC50 was > 28.2 µM (inactive).

For the compound `O=C(NC(c1ccc(Cl)cc1)c1nc(-c2cccc(Cl)c2)no1)c1cccc(Cl)c1` (configuration not stated), the EC50 was > 28.2 µM (inactive).

For the compound `CCc1ccc(C(NC(=O)c2cccc(Cl)c2)c2nc(-c3ccccc3)no2)cc1` (configuration not stated), the EC50 is > 28.2 µM (inactive).

`O=C(NC(Cc1ccccc1)c1nc(-c2ccccc2)no1)c1cccc(Cl)c1` (configuration not stated): the EC50 is > 28.2 µM (inactive).

Take `Cc1ccc(C(=O)NC(c2ccccc2)c2nc(-c3ccccc3)no2)cc1` (configuration not stated): the EC50 is > 28.2 µM (inactive).

As for `O=C(NC(c1nc(-c2ccccc2)no1)C1CCOCC1)c1ccc(Cl)c(Cl)c1` (configuration not stated), the EC50 is > 28.2 µM (inactive).

Regarding `O=C(NC(c1ccc(Cl)c(Cl)c1)c1nc(-c2ccccc2)no1)c1ccc(Cl)c(Cl)c1` (configuration not stated), the EC50 is > 28.2 µM (inactive).

Consider `O=C(NC(c1ccc(Cl)c(Cl)c1)c1nc(-c2ccccc2)no1)c1ccccc1` (configuration not stated), for which the EC50 is > 28.2 µM (inactive).

As to `O=C(NC(c1ccc(Cl)cc1)c1nc(-c2ccccc2)no1)c1ccc(Cl)c(Br)c1` (configuration not stated), the EC50 was > 28.2 µM (inactive).

Regarding `N#Cc1ccc(C(=O)NC(c2ccc(Cl)c(Cl)c2)c2nc(-c3ccccc3)no2)cc1` (configuration not stated), the EC50 is > 28.2 µM (inactive).

For `O=C(NC(c1ccccc1)c1nc(-c2ccccc2)no1)c1ccc(Cl)cc1` (configuration not stated), the EC50 is > 28.2 µM (inactive).

`O=C(NC(c1ccc(Cl)cc1)c1nc(-c2ccccc2)no1)c1cccc(Br)c1` (configuration not stated): the EC50 is > 28.2 µM (inactive).

Consider `O=C(NC(c1nc(-c2ccccc2)no1)C1CCCCC1)c1ccc(Cl)c(Cl)c1` (configuration not stated), for which the EC50 was > 28.2 µM (inactive).

Turning to `O=C(NC(c1ccc(Cl)c(Cl)c1)c1nc(-c2ccccc2)no1)c1cccc(Cl)c1` (configuration not stated), the EC50 was > 28.2 µM (inactive).

For the compound `O=C(NC(c1cccc(Cl)c1)c1nc(-c2ccccc2)no1)c1cccc(Cl)c1` (configuration not stated), the EC50 was > 28.2 µM (inactive).

Take `O=C(NC(c1ccccc1)c1nc(-c2ccccc2)no1)c1cccc(Cl)c1` (configuration not stated): the EC50 is > 28.2 µM (inactive).

For the compound `O=C(NC(c1cccc(Cl)c1)c1nc(-c2ccccc2)no1)c1ccc(Cl)c(Cl)c1` (configuration not stated), the EC50 is > 28.2 µM (inactive).

Regarding `O=C(NC(c1ccc(Cl)cc1)c1nc(-c2ccccc2)no1)c1ccc(Cl)c(Cl)c1` (configuration not stated), the EC50 is > 28.2 µM (inactive).

For `O=C(NC(c1ccc(Cl)cc1)c1nc(-c2ccccc2)no1)c1cccc(Cl)c1` (configuration not stated), the EC50 is > 28.2 µM (inactive).

In the case of `O=C(NC(c1ccc(Cl)cc1)c1nc(-c2ccccn2)no1)c1cccc(Cl)c1` (configuration not stated), the EC50 is > 28.2 µM (inactive).

Take `O=C(NC(c1ccc(Br)cc1)c1nc(-c2ccccc2)no1)c1ccc(Cl)c(Cl)c1` (configuration not stated): the EC50 is > 28.2 µM (inactive).

`O=C(c1cccc(Cl)c1)N(CCO)C(c1ccc(Cl)c(Cl)c1)c1nc(-c2ccccc2)no1` (configuration not stated): the EC50 was > 28.2 µM (inactive).

Consider `COc1ccc(C(=O)NC(c2ccccc2)c2nc(-c3ccccc3)no2)cc1` (configuration not stated), for which the EC50 was > 28.2 µM (inactive).

A word on the EC50: it is the concentration that produces a half-maximal response.
